Test results: patent US6710060B2, “4-hydroxypiperidine derivatives having antiarrhythmic activity” (Mochida Pharmaceutical Co., Ltd., priority 1999, dated 2004)
Counter-ions that a name gives are not always drawn.

Tested on: Electrocardiogram in Rats
Assay: Effect on electrocardiogram in rats
Format: in vivo
Details: 5 mg/kg intravenous, anesthetized rat, two minutes after administration
Method: [Effect on Electrocardiogram in Rats]
After anesthetizing with 1.5 g/kg (s.c.) of urethane, a rat was fixed on a warm plate at its supination. Polyethylene tubes for administering a test compound and for measuring the blood pressure were inserted into and fixed to the jugular vein and femoral artery, respectively. The blood pressure of the artery was measured using a pressure transducer. An electrode was attached to the animal, electrocardiograms were led by the standard lead II. The heart rate was measured by using a heart rate counter. The test compound was given by intravenous injection when the blood pressure and heat rate had been stabilized after the operation. […] Each parameter on the electrocardiogram was processed using an analysis software running on the personal computer to calculate the rate of change as compared with that before administration.

Compound | PQ Distance (rate of change) | QRS Width (rate of change)
CCCCOc1ccc(N(C)CCC2(O)CCN(Cc3ccc(F)cc3)CC2)cc1 [Example 177, 4-[2-[N-(4-n-butoxyphenyl)-N-methylamino]ethyl]-1(4-fluorophenylmethyl)piperidin-4-ol dihydrochloride] | — (The rate of change at two minutes after administration is 15% or less as compared with that before administration.) | — (The rate of change at two minutes after administration is 15% or less as compared with that before administration.)
CC(C)Oc1ccc(N(C)CCC2(O)CCN(Cc3cccs3)CC2)cc1 [Example 254, 4-[2-[N-methyl-N-(4-isopropoxyphenyl)amino]ethyl]-1(2-thienylmethyl)piperidin-4-ol dihydrochloride] | — (The rate of change at two minutes after administration is 15% or less as compared with that before administration.) | — (The rate of change at two minutes after administration is 15% or less as compared with that before administration.)
CCCCOc1ccc(N(C)CCC2(OC)CCN(Cc3ccccc3)CC2)cc1 [Example 201, 1-benzyl-4-methoxy-4-[2-[N-(4-n-butoxyphenyl)-N-methylamino]ethyl]piperidine dihydrochloride] | — (The rate of change at two minutes after administration is 15% or less as compared with that before administration.) | — (The rate of change at two minutes after administration is 15% or less as compared with that before administration.)
CCCCOc1ccc(N(C)CCC2(O)CCN(Cc3ccc4c(c3)OCO4)CC2)cc1 [Example 162, 4-[2-[N-(4-n-butoxyphenyl)-N-methylamino]ethyl]-1-(3,4-methylenedioxyphenylmethyl)piperidin-4-ol dihydrochloride] | — (The rate of change at two minutes after administration is 15% or less as compared with that before administration.) | — (The rate of change at two minutes after administration is 15% or less as compared with that before administration.)
CC(C)Oc1ccc(N(C)CCC2(O)CCN(Cc3ccc(C#N)cc3)CC2)cc1 [Example 226, 1-(4-cyanophenylmethyl)-4-[2-[N-methyl-N-(4-isopropoxyphenyl)amino]ethyl]piperidin-4-ol dihydrochloride] | — (The rate of change at two minutes after administration is 15% or less as compared with that before administration.) | — (The rate of change at two minutes after administration is 15% or less as compared with that before administration.)
CCCCOc1ccc(N(C)CC(O)C2(O)CCN(CCc3ccc(F)cc3)CC2)cc1 (centres unmarked) [Example 196, 4-[2-[N-(4-n-butoxyphenyl)-N-methylamino]-1-hydroxyethyl]-1-[2-(4-fluorophenyl)ethyl]piperidin-4-ol dihydrochloride] | — (The rate of change at two minutes after administration is 15% or less as compared with that before administration.) | — (The rate of change at two minutes after administration is 15% or less as compared with that before administration.)
CCCCOc1ccc(N(C)CCC2(O)CCN(CC(O)c3ccc(F)cc3)CC2)cc1 (centres unmarked) [Example 198, 4-[2-[N-(4-n-butoxyphenyl)-N-methylamino]ethyl]-1-[2-(4-fluorophenyl)-2-hydroxyethyl]piperidin-4-ol dihydrochloride] | — (The rate of change at two minutes after administration is 15% or less as compared with that before administration.) | — (The rate of change at two minutes after administration is 15% or less as compared with that before administration.)

Tested on: not given
Assay: not given
Details: not given

melting point | Compound
170 to 171.2 °C | CC(C)Oc1ccc(NCCC2(O)CCN(C(c3ccccc3)c3ccccc3)CC2)cc1 [Example 136, 1-diphenylmethyl-4-[2-[N-(4-isopropoxyphenyl)-amino]ethyl]piperidin-4-ol]
109.9 to 110.6 °C | CC(C)Oc1ccc(N(C)CCC2(O)CCN(Cc3ccc(C(F)(F)F)cc3)CC2)cc1 [Example 74, 4-[2-[N-methyl-N-(4-isopropoxyphenyl)amino]ethyl]-1-[4-(trifluoromethyl)phenylmethyl]piperidin-4-ol]
94.3 to 95.8 °C | CCOc1ccc(N(C)CCC2(O)CCN(C(c3ccccc3)c3ccccc3)CC2)cc1 [Example 133, 1-diphenylmethyl-4-[2-[N-(4-ethoxyphenyl)-N-methylamino]ethyl]piperidin-4-ol]
50.3 to 51.6 °C | CCOC(=O)c1ccc(CN2CCC(O)(CCN(C)c3ccc(OC(C)C)cc3)CC2)cc1 [Example 106, 1-[4-(ethoxycarbonyl)phenylmethyl]-4-[2-[N-methyl-N-(4-isopropoxyphenyl)amino]ethyl]piperidin-4-ol]
241.2 to 242.6 °C | CC(C)Oc1ccc(N(C)CCC2(O)CCN(Cc3ccc(C(F)(F)F)cc3)CC2)cc1 (as salt: hydrochloride) [Example 221, 4-[2-[N-methyl-N-(4-isopropoxyphenyl)amino]ethyl]-1-[4-(trifluoromethyl)phenylmethyl]piperidin-4-ol dihydrochloride]
99.8 to 100.9 °C | CC(C)Oc1ccc(N(C)CCC2(O)CCN(Cc3ccc(Br)cc3F)CC2)cc1 [Example 93, 1-(4-bromo-2-fluorophenylmethyl)-4-[2-[N-methyl-N-(4-isopropoxyphenyl)amino]ethyl]piperidin-4-ol]
152.3 to 153.1 °C | CC(C)Oc1ccc(NCCC2(O)CCN(Cc3ccc(C(F)(F)F)cc3)CC2)cc1 [Example 125, 4-[2-[N-(4-isopropoxyphenyl)amino]ethyl]-1-[4-(trifluoromethyl)phenylmethyl]piperidin-4-ol]
52.5 to 54.6 °C | CC(C)Oc1ccc(N(C)CCC2(O)CCN(Cc3cccc(F)c3)CC2)cc1 [Example 94, 1-(3-fluorophenylmethyl)-4-[2-[N-methyl-N-(4-isopropoxyphenyl)amino]ethyl]piperidin-4-ol]
77.6 to 77.9 °C | CC(C)Oc1ccc(N(C)CCC2(O)CCN(Cc3ccc(F)cc3F)CC2)cc1 [Example 87, 1-(2,4-difluorophenylmethyl)-4-[2-[N-methyl-N-(4-isopropoxyphenyl)amino]ethyl]piperidin-4-ol]
45.1 to 46.5 °C | COc1cccc(CN2CCC(O)(CCN(C)c3ccc(OC(C)C)cc3)CC2)c1 [Example 77, 1-(3-methoxyphenylmethyl)-4-[2-[N-methyl-N-(4-isopropoxyphenyl)amino]ethyl]piperidin-4-ol]

Compound | melting point
CCCCOc1ccc(N(C)CCC2(O)CCN(CC(O)c3ccc(F)cc3)CC2)cc1 (centres unmarked) (as salt: hydrochloride) [Example 198, 4-[2-[N-(4-n-butoxyphenyl)-N-methylamino]ethyl]-1-[2-(4-fluorophenyl)-2-hydroxyethyl]piperidin-4-ol dihydrochloride] | 174.9 to 184.5 °C
CCCCOc1ccc(N(C)CCC2(O)CCN(Cc3ccc(N(C)C)cc3)CC2)cc1 [Example 24, 4-[2-[N-(4-n-butoxyphenyl)-N-methylamino]ethyl]-1-[4-(dimethylamino)phenylmethyl]piperidin-4-ol] | 71.3 to 73 °C
CCCCOc1ccc(N(C)CCC2(O)CCN(Cc3ccc(C#N)cc3)CC2)cc1 [Example 22, 4-[2-[N-(4-n-butoxyphenyl)-N-methylamino]ethyl]-1(4-cyanophenylmethyl)piperidin-4-ol] | 83.5 to 85.5 °C
CCCCOc1ccc(N(C)CCC2(O)CCN(C3Cc4ccccc4C3)CC2)cc1 [Example 32, 4-[2-[N-(4-n-butoxyphenyl)-N-methylamino]ethyl]-1-(2,3-dihydro-1H-indene-2-yl)piperidin-4-ol] | 94.4 to 94.6 °C
CCCCOc1ccc(N(CCC2(O)CCN(CCc3ccc(F)cc3)CC2)C(C)=O)cc1 [Example 57, 4-[2-[N-acetyl-N-(4-n-butoxyphenyl)amino]ethyl]-1-[2-(4-fluorophenyl)ethyl]piperidin-4-ol] | 121.6 to 122.1 °C
